Consider three molecules from US20240240226A1, “FLUOROGENIC ASSAY FOR RAPID SCREENING OF BACTERIAL BETA-LACTAMASE ACTIVITY” (The Board of Trustees of the Leland Stanford Junior …, priority 2021, published 2024).

For series [1], the target named is T1, horseradish peroxidase (HRP) (Armoracia rusticana, UniProt P00433).
T1 sequence (P00433 31-338): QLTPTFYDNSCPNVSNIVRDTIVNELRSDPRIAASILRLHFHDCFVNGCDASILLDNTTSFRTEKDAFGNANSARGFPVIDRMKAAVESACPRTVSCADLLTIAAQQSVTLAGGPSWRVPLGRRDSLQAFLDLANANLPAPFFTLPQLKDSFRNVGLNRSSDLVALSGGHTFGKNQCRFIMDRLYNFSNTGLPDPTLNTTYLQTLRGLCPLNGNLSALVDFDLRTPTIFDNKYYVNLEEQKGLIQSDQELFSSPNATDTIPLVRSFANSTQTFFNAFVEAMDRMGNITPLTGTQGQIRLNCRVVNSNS
The experiment in a line: Amplex red fluorescence turn-on with HRP and H2O2. In kind it is biochemical. The settings on record: HRP 1 unit/mL, H2O2 1 uM, 10 μM AR in PBS, room temperature, 5 min. How it is done:
FIG. 6 illustrates the fluorescence spectra of CDA and Amplex red. a) Fluorescent emission spectra of PBS, CDA, and AR (10 μM probes in PBS; excitation, 525 nm). b) Fluorescent emission spectra of CDA treated with esterase (1 μg/mL), TEM-1 Bla (100 nM) and H2O2 (1 mM) at room temperature for 8 hours. c) Fluorescent emission spectra of AR and AR treated with HRP and H2O2 at room temperature for 5 min (10 μM AR in PBS, HRP 1 unit/mL, H2O2 1 uM) (excitation, 525 nm). A.U. indicates arbitrary units.
The synthesis of CDA is outlined in Scheme 1 (FIG. 28). DARR was prepared from resazurin sodium salt through reduction and acetylation (Han et al., Chemistry (2016) 11: 818-822) and conjugated to the oxidized cephalosporin chloride with a self-immolative linker 4-mercaptobenzyl alcohol to afford CDA after reduction and deprotection. When incubated with a recombinant class A cephalosporin-hydrolyzing β-lactamase TEM-1 (TEM-1 Bla, FIGS. 7 and 8), esterase, and hydrogen peroxide (H2O2), CDA generated approximately 1200-fold fluorescence turn-on (FIGS. 1b and 6b).

In another series the test system is esterase. The series is described as follows: DARR response to esterase and H2O2. In kind it is biochemical. The conditions noted are these: esterase 1 μg/mL, different concentrations of H2O2, room temperature. How it is done: FIG. 11 illustrates that esterase sensitizes DARR in response to H2O2. a) Structure of DARR and its hydrolysis by esterase and oxidation into fluorescent resorufin by H2O2. b) Fluorescence enhancement of DARR treated with esterase (1 μg/mL) and different concentrations of H2O2 at room temperature. Data were collected on a Tecan Safire microplate reader with excitation at 570 nm and emission at 600 nm. A.U. indicates arbitrary units.
As oxidation is the essential step in converting β-lactamase/esterase processed CDA to resorufin, the stability of CDA was evaluated in different concentrations of H2O2 (FIG. 2a). […] The sulfur center of CDA was also stable in H2O2 (1 mM) (FIG. 9).

The conditions of series [2]: pH=8; cited from earlier work.

In the case of `CC(=O)N1c2ccc(O)cc2Oc2cc(O)ccc21` [Amplex red, 10-Acetyl-3,7-dihydroxyphenoxazine], the fluorescence turn-on in series [1] came out at 413 fold. As to `CC(=O)Oc1ccc2c(c1)Oc1cc(OC(C)=O)ccc1N2` [DARR, 10H-phenoxazine-3,7-diyl diacetate], the response to esterase result in the series on esterase is recorded as “fast response to esterase”. In the case of `O=c1ccc2nc3ccc(O)cc3oc-2c1` [resorufin], the “fluorescence quantum yield ϕ” value in series [2] is 0.75.
